molecular target: HPK1 (Homo sapiens (Human), UniProt Q92918); test: HPK1 Lantha binding assay ("Lanth"); settings: binding assays; Morrison Ki fit
In short: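 Ki values are from Morrison-equation fitting of 665/615 nm TR-FRET signals, taking enzyme level, tracer level and tracer Kd into account. The assay mix held HPK1 (2 nM), Eu-anti-GST antibody (2 nM) and Tracer222 (15 nM). Incubations were two 1 h steps at 23 °C, on 5-fold serial compound dilutions.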

Chain of HPK1 (Q92918 1-346 limits assumed): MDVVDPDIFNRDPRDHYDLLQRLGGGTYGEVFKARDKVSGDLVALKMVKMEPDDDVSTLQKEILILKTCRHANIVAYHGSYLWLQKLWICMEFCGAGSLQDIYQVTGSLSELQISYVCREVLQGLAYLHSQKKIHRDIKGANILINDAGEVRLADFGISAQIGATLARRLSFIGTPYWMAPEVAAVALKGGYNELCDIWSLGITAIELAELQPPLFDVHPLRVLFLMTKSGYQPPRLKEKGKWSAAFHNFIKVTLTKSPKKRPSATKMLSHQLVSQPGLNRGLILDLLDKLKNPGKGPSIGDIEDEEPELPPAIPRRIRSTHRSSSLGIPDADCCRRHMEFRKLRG

Which Ki does the source give for `CC(=O)NC1CCC2(CNc3ncc(-c4ccc(N)c(C(=O)N(C)C)c4F)c(Cl)c32)C1` (centres unmarked) [Compound 83, 3-(3-Acetamido-4′-chloro-1′,2′-dihydrospiro[cyclopentane-1,3′-pyrrolo[2,3-b]pyridin]-5′-yl)-6-amino-2-fluoro-N,N-dimethylbenzamide] here?
Its Ki is 208 nM.

How did the Ki turn out when `CN(C)C(=O)c1c(N)ccc(-c2cnc3c(c2Cl)[C@]2(CC[C@H](n4cncn4)C2)CN3)c1F` [Compound 85a, 6-Amino-3-((1R,3S)-4′-chloro-3-(1H-1,2,4-triazol-1-yl)-1′,2′-dihydrospiro[cyclopentane-1,3′-pyrrolo[2,3-b]pyridin]-5′-yl)-2-fluoro-N,N-dimethylbenzamide] was run?
The Ki was 48.1 nM.

`CN(C)C(=O)c1c(N)ccc(-c2cnc3c(c2Cl)[C@]2(CC[C@@H](n4cncn4)C2)CN3)c1F` [Compound 85c, 6-Amino-3-((1R,3R)-4′-chloro-3-(1H-1,2,4-triazol-1-yl)-1′,2′-dihydrospiro[cyclopentane-1,3′-pyrrolo[2,3-b]pyridin]-5′-yl)-2-fluoro-N,N-dimethylbenzamide] was tested. Which Ki did it give?
The Ki was 149 nM.

For `C[C@@H]1C[C@@]12CNc1ncc(-c3ccc(N)c(C(=O)N(C)C)c3F)cc12` [Compound 86c, 6-Amino-2-fluoro-N,N-dimethyl-3-((1R,2R)-2-methyl-1′,2′-dihydrospiro[cyclopropane-1,3′-pyrrolo[2,3-b]pyridin]-5′-yl)benzamide], which Ki is on record?
Its Ki is 3.25 nM.

How did the Ki turn out when `CN(C)C(=O)c1c(N)ccc(-c2cnc3c(c2)[C@]2(CN3)C[C@@](O)(C(F)(F)F)C2)c1F` [Compound 87a] was run?
The Ki was 358 nM.

`CN(C)C(=O)c1c(N)ccc(-c2cnc3c(c2)[C@]2(CN3)C[C@@H](n3cncn3)C2)c1F` [Compound 88a] was tested. Which Ki did it give?
The Ki was 126 nM.

Which Ki does the source give for `CN(C)C(=O)c1c(N)ccc(-c2cnc3c(c2Cl)[C@]2(CC[C@@H](n4nccn4)C2)CN3)c1F` [Compound 89c, 6-Amino-3-((1R,3R)-4′-chloro-3-(2H-1,2,3-triazol-2-yl)-1′,2′-dihydrospiro[cyclopentane-1,3′-pyrrolo[2,3-b]pyridin]-5′-yl)-2-fluoro-N,N-dimethylbenzamide] here?
Its Ki is 23.1 nM.

With `CN(C)C(=O)c1c(N)ccc(-c2cnc3c(c2Cl)[C@]2(CC[C@H](n4ccnn4)C2)CN3)c1F` [Compound 90a] as the compound, how does the Ki read?
The Ki was 51.8 nM.

`CC(=O)N1CC2(CNc3ncc(-c4ccc(N)c(C(=O)N(C)C)c4F)cc32)C1` [Compound 93, 3-(1-Acetyl-1′,2′-dihydrospiro[azetidine-3,3′-pyrrolo[2,3-b]pyridin]-5′-yl)-6-amino-2-fluoro-N,N-dimethylbenzamide] was tested. Which Ki did it give?
The Ki was 916 nM.

For `CN(C)C(=O)c1c(N)ccc(-c2cnc3c(c2)C2(CN3)CC(=CC#N)C2)c1F` (centres unmarked) [Compound 94a, (s,E)-6-Amino-3-(3-(cyanomethylene)-1′,2′-dihydrospiro[cyclobutane-1,3′-pyrrolo[2,3-b]pyridin]-5′-yl)-2-fluoro-N,N-dimethylbenzamide], which Ki is on record?
Its Ki is 73.6 nM.

With `CN(C)C(=O)c1c(N)ccc(-c2cnc3c(c2)[C@]2(CN3)C[C@@H](CC#N)C2)c1F` [Compound 95a, 6-Amino-3-((1r,3r)-3-(cyanomethyl)-1′,2′-dihydrospiro[cyclobutane-1,3′-pyrrolo[2,3-b]pyridin]-5′-yl)-2-fluoro-N,N-dimethylbenzamide] as the compound, how does the Ki read?
The Ki was 120 nM.

Which Ki does the source give for `CN(C)C(=O)c1c(N)ccc(-c2cnc3c(c2)[C@]2(CN3)C[C@@H](C#N)C2)c1F` [Compound 96a] here?
Its Ki is 124 nM.

Which Ki does the source give for `CN(C)C(=O)c1c(N)ccc(-c2cnc3c(c2)[C@]2(CN3)C[C@@H](C(N)=O)C2)c1F` [Compound 97a] here?
The Ki was 50.7 nM.

How did the Ki turn out when `CN(C)C(=O)c1c(N)ccc(-c2cnc3c(c2)C2(CN3)CC(=CC(N)=O)C2)c1F` (centres unmarked) [Compound 101, 6-Amino-3-(3-(2-amino-2-oxoethylidene)-1′,2′-dihydrospiro[cyclobutane-1,3′-pyrrolo[2,3-b]pyridin]-5′-yl)-2-fluoro-N,N-dimethylbenzamide] was run?
Its Ki is 55.8 nM.

Which Ki does the source give for `CN(C)C(=O)c1c(N)ccc(-c2cnc3c(c2)[C@]2(CN3)C[C@H](CC(N)=O)C2)c1F` [Compound 102a, 6-Amino-3-((1r,3r)-3-(2-amino-2-oxoethyl)-1′,2′-dihydrospiro[cyclobutane-1,3′-pyrrolo[2,3-b]pyridin]-5′-yl)-2-fluoro-N,N-dimethylbenzamide] here?
Its Ki is 67 nM.

`CN(C)C(=O)c1c(N)ccc(-c2cnc3c(c2Cl)C2(CCC(=CS(C)(=O)=O)C2)CN3)c1F` (centres unmarked) [Compound 103, 6-Amino-3-(4′-chloro-3-((methylsulfonyl)methylene)-1′,2′-dihydrospiro[cyclopentane-1,3′-pyrrolo[2,3-b]pyridin]-5′-yl)-2-fluoro-N,N-dimethylbenzamide] was tested. Which Ki did it give?
Its Ki is 24.1 nM.

`CN(C)C(=O)c1c(N)ccc(-c2cnc3c(c2Cl)C2(CCC(=CC#N)C2)CN3)c1F` (centres unmarked) [Compound 104, 6-Amino-3-(4′-chloro-3-(cyanomethylene)-1′,2′-dihydrospiro[cyclopentane-1,3′-pyrrolo[2,3-b]pyridin]-5′-yl)-2-fluoro-N,N-dimethylbenzamide] was tested. Which Ki did it give?
Its Ki is 13.1 nM.

With `CN(C)C(=O)c1c(N)ccc(-c2cnc3c(c2Cl)[C@]2(CC[C@](O)(CC#N)C2)CN3)c1F` [Compound 109a, 6-Amino-3-((1R,3R)-4′-chloro-3-(cyanomethyl)-3-hydroxy-1′,2′-dihydrospiro[cyclopentane-1,3′-pyrrolo[2,3-b]pyridin]-5′-yl)-2-fluoro-N,N-dimethylbenzamide] as the compound, how does the Ki read?
Its Ki is 25.3 nM.

How did the Ki turn out when `CN(C)C(=O)c1c(N)ccc(-c2cnc3c(c2Cl)C2(CCC(=CC(N)=O)C2)CN3)c1F` (centres unmarked) [Compound 110, 6-Amino-3-(3-(2-amino-2-oxoethylidene)-4′-chloro-1′,2′-dihydrospiro[cyclopentane-1,3′-pyrrolo[2,3-b]pyridin]-5′-yl)-2-fluoro-N,N-dimethylbenzamide] was run?
Its Ki is 4.5 nM.

With `CN(C)C(=O)c1c(N)ccc(-c2cnc3c(c2)[C@]2(CC[C@H](O)CC2)CN3)c1F` [Compound 111a, 6-Amino-2-fluoro-3-((1s,4s)-4-hydroxy-1′,2′-dihydrospiro[cyclohexane-1,3′-pyrrolo[2,3-b]pyridin]-5′-yl)-N,N-dimethylbenzamide] as the compound, how does the Ki read?
Its Ki is 48.3 nM.

`CN(C)C(=O)c1c(N)ccc(-c2cnc3c(c2)[C@]2(CC[C@@H](O)CC2)CN3)c1F` [Compound 111b, 6-Amino-2-fluoro-3-((1r,4r)-4-hydroxy-1′,2′-dihydrospiro[cyclohexane-1,3′-pyrrolo[2,3-b]pyridin]-5′-yl)-N,N-dimethylbenzamide] was tested. Which Ki did it give?
Its Ki is 172 nM.

`CN(C)C(=O)c1c(N)ccc(-c2cnc3c(c2Cl)C2(C=C(c4cccnc4)CC2)CN3)c1F` (centres unmarked) [Compound 112, 6-Amino-3-(4′-chloro-3-(pyridin-3-yl)-1′,2′-dihydrospiro[cyclopentane-1,3′-pyrrolo[2,3-b]pyridin]-2-en-5′-yl)-2-fluoro-N,N-dimethylbenzamide] was tested. Which Ki did it give?
The Ki was 6.6 nM.

Which Ki does the source give for `COc1c(-c2ccc(N)c(C(=O)N(C)C)c2F)cnc2c1[C@]1(CC[C@@H](O)CC1)CN2` [Compound 113a, 6-Amino-2-fluoro-3-((1r,4r)-4-hydroxy-4′-methoxy-1′,2′-dihydrospiro[cyclohexane-1,3′-pyrrolo[2,3-b]pyridin]-5′-yl)-N,N-dimethylbenzamide] here?
Its Ki is 39 nM.

How did the Ki turn out when `COc1c(-c2ccc(N)c(C(=O)N(C)C)c2F)cnc2c1[C@]1(CC[C@H](O)CC1)CN2` [Compound 113b, 6-Amino-2-fluoro-3-((1s,4s)-4-hydroxy-4′-methoxy-1′,2′-dihydrospiro[cyclohexane-1,3′-pyrrolo[2,3-b]pyridin]-5′-yl)-N,N-dimethylbenzamide] was run?
The Ki was 15.1 nM.

With `CN(C)C(=O)c1c(N)ccc(-c2cnc3c(c2Cl)[C@]2(CCNC(=O)C2)CN3)c1F` [Compound 122a, (R)-6-Amino-3-(4′-chloro-2-oxo-1′,2′-dihydrospiro[piperidine-4,3′-pyrrolo[2,3-b]pyridin]-5′-yl)-2-fluoro-N,N-dimethylbenzamide] as the compound, how does the Ki read?
Its Ki is 304 nM.

With `CN(C)C(=O)c1c(N)ccc(-c2cnc3c(c2Cl)[C@@]2(CCNC(=O)C2)CN3)c1F` [Compound 122b, (S)-6-Amino-3-(4′-chloro-2-oxo-1′,2′-dihydrospiro[piperidine-4,3′-pyrrolo[2,3-b]pyridin]-5′-yl)-2-fluoro-N,N-dimethylbenzamide] as the compound, how does the Ki read?
Its Ki is 26 nM.

How did the Ki turn out when `CN(C)C(=O)c1c(N)ccc(-c2cnc3c(c2Cl)C2(CCC(CC#N)C2)CN3)c1F` (centres unmarked) [Compound 130, 6-Amino-3-(4′-chloro-3-(cyanomethyl)-1′,2′-dihydrospiro[cyclopentane-1,3′-pyrrolo[2,3-b]pyridin]-5′-yl)-2-fluoro-N,N-dimethylbenzamide] was run?
Its Ki is 4 nM.

How did the Ki turn out when `CN(Cc1cnn(C)c1)C(=O)c1cccc(-c2cnc3c(c2)C2(CC2)CN3)c1F` [Compound 136, 3-(1′,2′-dihydrospiro[cyclopropane-1,3′-pyrrolo[2,3-b]pyridin]-5′-yl)-2-fluoro-N-methyl-N-((1-methyl-1H-pyrazol-4-yl)methyl)benzamide] was run?
Its Ki is 15.9 nM.

`CCN(C(=O)c1cccc(-c2cnc3c(c2)C2(CC2)CN3)c1F)C1CCC1` [Compound 137, N-cyclobutyl-3-(1′,2′-dihydrospiro[cyclopropane-1,3′-pyrrolo[2,3-b]pyridin]-5′-yl)-N-ethyl-2-fluorobenzamide] was tested. Which Ki did it give?
Its Ki is 34.1 nM.

Which Ki does the source give for `CN(CCC#N)C(=O)c1cccc(-c2cnc3c(c2)C2(CC2)CN3)c1F` [Compound 138, N-(2-cyanoethyl)-3-(1,2′-dihydrospiro[cyclopropane-1,3′-pyrrolo[2,3-b]pyridin]-5′-yl)-2-fluoro-N-methylbenzamide] here?
The Ki was 38.6 nM.

For `CC(C)C1CN(C(=O)c2cccc(-c3cnc4c(c3)C3(CC3)CN4)c2F)C1` [Compound 139, (3-(1′,2′-dihydrospiro[cyclopropane-1,3′-pyrrolo[2,3-b]pyridin]-5′-yl)-2-fluorophenyl)(3-isopropylazetidin-1-yl)methanone], which Ki is on record?
Its Ki is 120 nM.

`CN(C(=O)c1cccc(-c2cnc3c(c2)C2(CC2)CN3)c1F)c1cnn(C)c1` [Compound 141, 3-(1′,2′-dihydrospiro[cyclopropane-1,3′-pyrrolo[2,3-b]pyridin]-5′-yl)-2-fluoro-N-methyl-N-(1-methyl-1H-pyrazol-4-yl)benzamide] was tested. Which Ki did it give?
The Ki was 126 nM.

From patent US12208088B2 (Genentech, Inc., priority 2018, dated 2025)
